Data reported in patent US20030022241A1, “Methods” (priority 2001, published 2003).

Target: native MNK-2B (Homo sapiens, UniProt Q9HBH9)
Assay: NMR screening (Saturation Transfer Difference) for compounds binding Mnk2b
Conditions: screen: 1 μM native MNK-2B, 200 μM compound mixture; confirmation: 2 μM native Mnk2B, 250 μM individual compound; pH 7.5, 20° C.
Source text: A diversity library consisting of relatively small and highly water-soluble compounds was used to screen native MNK-2B for binders by NMR (Nuclear Magnetic Resonance). The NMR tecinique used to identify binders was Saturation Transfer Difference (STD): the protein ^1H resonances are saturated by means of a weak radio-frequency field applied to a narrow spectral region. The saturation is transferred by spin diffusion to the rest of the protein and subsequently further to compounds that bind to the protein attenuating their signals in the NMR spectrum. The spectrum is then subtracted from a spectrum obtained at non-saturating conditions to obtain an STD spectrum showing only the signals from compounds interacting with the protein. In practice the pulse sequence is written in such a way that the subtraction is done automatically in every other scan, i.e. the individual spectra are never observed (Mayer & Meyer, Angew. Chem. Int. Ed., 38, 1784-1788, 1999).
The compounds in the library are divided into mixtures consisting of 4-8 compounds each. Each sample contained 1 μM native MNK-2B, 200 μM compound mixture, 50 mM sodium phosphate buffer, 1 mM DTT, pH 7.5 in ca 98% D2O/2% H2O. […] The volume was 600 μl and standard NMR tubes were used. […] A reference ^1H 1D experiment and an STD experiment were recorded on each sample. […]

native MNK-2B, sequence (Q9HBH9 1-414 isoform Q9HBH9-2): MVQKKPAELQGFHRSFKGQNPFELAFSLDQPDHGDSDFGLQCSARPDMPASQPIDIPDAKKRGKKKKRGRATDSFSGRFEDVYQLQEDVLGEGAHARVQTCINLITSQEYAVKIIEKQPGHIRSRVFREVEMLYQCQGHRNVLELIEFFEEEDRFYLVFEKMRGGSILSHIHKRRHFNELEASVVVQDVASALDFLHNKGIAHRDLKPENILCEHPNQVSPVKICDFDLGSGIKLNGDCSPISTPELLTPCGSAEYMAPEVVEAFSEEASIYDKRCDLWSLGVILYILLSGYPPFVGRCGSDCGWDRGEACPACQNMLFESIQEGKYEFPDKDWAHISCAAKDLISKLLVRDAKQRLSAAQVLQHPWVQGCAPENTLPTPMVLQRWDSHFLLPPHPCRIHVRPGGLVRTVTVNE

COC(=O)c1ccc(O)cc1 [4-hydroxy-benzoic acid methyl ester]
binding to Mnk2b by STD NMR (identified as ligand): identified as Mnk2b ligands
